Patent US8192962B2, “Processes for detecting toxic substances” (Daikin Industries, Ltd., priority 2001, dated 2012)

Test system: Mitochondria-located protein genes
Assay: DNA chip mRNA expression in yeast, mitochondria-located protein genes (Table 2)
Format: cell-based, Saccharomyces cerevisiae S288C
Conditions: cells incubated two hours with the chemical substance
In short: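 Values are treated/untreated fluorescence ratios from a whole-genome yeast DNA chip hybridized over 12 hours at 65° C with Cy3- or Cy5-labelled cDNA from poly(A) mRNA. Log-phase S288C yeast in YPD at 25° C had received a single toxic chemical for two hours, dosed to slow growth without killing.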

## [Cl][Cd][Cl] [(2), CdCl2]
Yeast gene YAL039C
  The level of expressed mRNA in the presence of chemical substance/The level of expressed mRNA in the absence of chemical substance: 2.2
Yeast gene YBL022C
  The level of expressed mRNA in the presence of chemical substance/The level of expressed mRNA in the absence of chemical substance: 0.8
Yeast gene YBL030C
  The level of expressed mRNA in the presence of chemical substance/The level of expressed mRNA in the absence of chemical substance: 0.9
Yeast gene YBL038W
  The level of expressed mRNA in the presence of chemical substance/The level of expressed mRNA in the absence of chemical substance: 0.9
Yeast gene YBL099W
  The level of expressed mRNA in the presence of chemical substance/The level of expressed mRNA in the absence of chemical substance: 0.9
Yeast gene YBR003W
  The level of expressed mRNA in the presence of chemical substance/The level of expressed mRNA in the absence of chemical substance: 0.8
Yeast gene YBR044C
  The level of expressed mRNA in the presence of chemical substance/The level of expressed mRNA in the absence of chemical substance: 1.4
Yeast gene YBR091C
  The level of expressed mRNA in the presence of chemical substance/The level of expressed mRNA in the absence of chemical substance: 1.0
Yeast gene YBR122C
  The level of expressed mRNA in the presence of chemical substance/The level of expressed mRNA in the absence of chemical substance: 0.9
Yeast gene YBR185C
  The level of expressed mRNA in the presence of chemical substance/The level of expressed mRNA in the absence of chemical substance: 1.0
Yeast gene YBR221C
  The level of expressed mRNA in the presence of chemical substance/The level of expressed mRNA in the absence of chemical substance: 0.7
Yeast gene YBR251W
  The level of expressed mRNA in the presence of chemical substance/The level of expressed mRNA in the absence of chemical substance: 0.9
Yeast gene YBR282W
  The level of expressed mRNA in the presence of chemical substance/The level of expressed mRNA in the absence of chemical substance: 1.0
Yeast gene YCL057W
  The level of expressed mRNA in the presence of chemical substance/The level of expressed mRNA in the absence of chemical substance: 1.5
Yeast gene YCR046C
  The level of expressed mRNA in the presence of chemical substance/The level of expressed mRNA in the absence of chemical substance: 1.2
Yeast gene YCR083W
  The level of expressed mRNA in the presence of chemical substance/The level of expressed mRNA in the absence of chemical substance: 2.8
Yeast gene YDL067C
  The level of expressed mRNA in the presence of chemical substance/The level of expressed mRNA in the absence of chemical substance: 1.0
Yeast gene YDL181W
  The level of expressed mRNA in the presence of chemical substance/The level of expressed mRNA in the absence of chemical substance: 1.8
Yeast gene YDL198C
  The level of expressed mRNA in the presence of chemical substance/The level of expressed mRNA in the absence of chemical substance: 1.0
Yeast gene YDR079W
  The level of expressed mRNA in the presence of chemical substance/The level of expressed mRNA in the absence of chemical substance: 1.1
Yeast gene YDR178W
  The level of expressed mRNA in the presence of chemical substance/The level of expressed mRNA in the absence of chemical substance: 2.0
Yeast gene YDR231C
  The level of expressed mRNA in the presence of chemical substance/The level of expressed mRNA in the absence of chemical substance: 1.6
Yeast gene YDR258C
  The level of expressed mRNA in the presence of chemical substance/The level of expressed mRNA in the absence of chemical substance: 2.3
Yeast gene YDR298C
  The level of expressed mRNA in the presence of chemical substance/The level of expressed mRNA in the absence of chemical substance: 1.2
Yeast gene YDR347W
  The level of expressed mRNA in the presence of chemical substance/The level of expressed mRNA in the absence of chemical substance: 0.8
Yeast gene YDR377W
  The level of expressed mRNA in the presence of chemical substance/The level of expressed mRNA in the absence of chemical substance: 1.1
Yeast gene YDR529C
  The level of expressed mRNA in the presence of chemical substance/The level of expressed mRNA in the absence of chemical substance: 1.0
Yeast gene YEL024W
  The level of expressed mRNA in the presence of chemical substance/The level of expressed mRNA in the absence of chemical substance: 0.9
Yeast gene YEL039C
  The level of expressed mRNA in the presence of chemical substance/The level of expressed mRNA in the absence of chemical substance: 0.7
Yeast gene YER178W
  The level of expressed mRNA in the presence of chemical substance/The level of expressed mRNA in the absence of chemical substance: 0.9
Yeast gene YFL016C
  The level of expressed mRNA in the presence of chemical substance/The level of expressed mRNA in the absence of chemical substance: 1.0
Yeast gene YGL018C
  The level of expressed mRNA in the presence of chemical substance/The level of expressed mRNA in the absence of chemical substance: 1.0
Yeast gene YGL187C
  The level of expressed mRNA in the presence of chemical substance/The level of expressed mRNA in the absence of chemical substance: 0.8
Yeast gene YGL191W
  The level of expressed mRNA in the presence of chemical substance/The level of expressed mRNA in the absence of chemical substance: 1.6
Yeast gene YGR008C
  The level of expressed mRNA in the presence of chemical substance/The level of expressed mRNA in the absence of chemical substance: 3.0
Yeast gene YGR028W
  The level of expressed mRNA in the presence of chemical substance/The level of expressed mRNA in the absence of chemical substance: 3.5
Yeast gene YGR062C
  The level of expressed mRNA in the presence of chemical substance/The level of expressed mRNA in the absence of chemical substance: 1.0
Yeast gene YGR076C
  The level of expressed mRNA in the presence of chemical substance/The level of expressed mRNA in the absence of chemical substance: 1.6
Yeast gene YGR082W
  The level of expressed mRNA in the presence of chemical substance/The level of expressed mRNA in the absence of chemical substance: 0.9
Yeast gene YGR174C
  The level of expressed mRNA in the presence of chemical substance/The level of expressed mRNA in the absence of chemical substance: 1.6
Yeast gene YGR244C
  The level of expressed mRNA in the presence of chemical substance/The level of expressed mRNA in the absence of chemical substance: 1.2
Yeast gene YHR008C
  The level of expressed mRNA in the presence of chemical substance/The level of expressed mRNA in the absence of chemical substance: 5.4
Yeast gene YIL155C
  The level of expressed mRNA in the presence of chemical substance/The level of expressed mRNA in the absence of chemical substance: 0.7
Yeast gene YJL096W
  The level of expressed mRNA in the presence of chemical substance/The level of expressed mRNA in the absence of chemical substance: 1.0
Yeast gene YJL102W
  The level of expressed mRNA in the presence of chemical substance/The level of expressed mRNA in the absence of chemical substance: 0.7
Yeast gene YJL133W
  The level of expressed mRNA in the presence of chemical substance/The level of expressed mRNA in the absence of chemical substance: 1.0
Yeast gene YJL166W
  The level of expressed mRNA in the presence of chemical substance/The level of expressed mRNA in the absence of chemical substance: 1.5
Yeast gene YJL180C
  The level of expressed mRNA in the presence of chemical substance/The level of expressed mRNA in the absence of chemical substance: 1.6
Yeast gene YJR045C
  The level of expressed mRNA in the presence of chemical substance/The level of expressed mRNA in the absence of chemical substance: 1.9
Yeast gene YJR077C
  The level of expressed mRNA in the presence of chemical substance/The level of expressed mRNA in the absence of chemical substance: 1.1
